Where a name gives a salt, the structure may show the parent alone.
Structure (SMILES) | melting point [°C]
CCN1c2ccc(C3(C(=O)NC(c4ccc(C)o4)c4ccc(C)cc4C)CC3)cc2CS1(=O)=O (centres unmarked) (as salt: HCl) [Cpd. 132, N-[(2,4-dimethylphenyl)(5-methylfuran-2-yl)methyl]-1-(1-ethyl-2,2-dioxo-1,3-dihydro-2,1-benzothiazol-5-yl)cyclopropane-1-carboxamide] | 68
Cc1ccc(C(NC(=O)C2(c3ccc4[nH]cc(CCO)c4c3)CC2)c2ccc(Cl)o2)c(C)c1 (centres unmarked) (as salt: HCl) [Cpd. 62, N-[(5-chlorofuran-2-yl)(2,4-dimethylphenyl)methyl]-1-[3-(2-hydroxyethyl)-1H-indol-5-yl]cyclopropane-1-carboxamide] | 70
Cc1ccc(C(NC(=O)Cc2ccc3c(c2)C(C)(C)C(=O)N3C)c2ccc(C)o2)c(N2CCCCC2)c1 (centres unmarked) (as salt: HCl) [Cpd. 40, N-{[4-methyl-2-(piperidin-1-yl)phenyl](5-methylfuran-2-yl)methyl}-2-(1,3,3-trimethyl-2-oxo-2,3-dihydro-1H-indol-5-yl)acetamide] | 75
Cc1ccc(C(NC(=O)C2(c3ccc4c(c3)OCC(=O)N4)CC2)c2cccc(C)n2)c(C)c1 (centres unmarked) (as salt: HCl) [Cpd. 136, N-[(2,4-dimethylphenyl)(6-methylpyridin-2-yl)methyl]-1-(3-oxo-3,4-dihydro-2H-1,4-benzoxazin-7-yl)cyclopropane-1-carboxamide] | 94
Cc1ccc(C(NC(=O)C2(c3ccc4c(c3)OCS(=O)(=O)N4C)CC2)c2ccc(C)o2)c(C)c1 (centres unmarked) (as salt: HCl) [Cpd. 172, N-[(2,4-dimethylphenyl)(5-methylfuran-2-yl)methyl]-1-(1-methyl-2,2-dioxo-1,3-dihydro-4,2,1-benzoxathiazin-6-yl)cyclopropane-1-carboxamide] | 65
COc1ccc(C(NC(=O)C2(c3ccc4c(c3)OCS(=O)(=O)N4)CC2)c2ccc(C)o2)c(Br)c1 (centres unmarked) (as salt: HCl) [Cpd. 147, N-[(2-bromo-4-methoxyphenyl)(5-methylfuran-2-yl)methyl]-1-(2,2-dioxo-1,3-dihydro-4,2,1-benzoxathiazin-6-yl)cyclopropane-1-carboxamide] | 115
Cc1ccc(C(NC(=O)Cc2ccc3c(ccn3CCC(=O)OC(C)(C)C)c2)c2ccc(C)o2)c(C)c1 (centres unmarked) (as salt: HCl) [Cpd. 99, tert-butyl 3-[5-({[(2,4-dimethylphenyl)(5-methylfuran-2-yl)methyl]carbamoyl}methyl)-1H-indol-1-yl]propanoate] | 39
Cc1ccc(C(NC(=O)C2(c3ccc4c(c3)CS(=O)(=O)N4C)CC2)c2ccc(Cl)o2)c(C)c1 (centres unmarked) (as salt: HCl) [Cpd. 160, N-[(5-chlorofuran-2-yl)(2,4-dimethylphenyl)methyl]-1-(1-methyl-2,2-dioxo-1,3-dihydro-2,1-benzothiazol-5-yl)cyclopropane-1-carboxamide] | 70
Cc1ccc(C(NC(=O)C2(c3ccc4c(c3)C(F)(F)C(=O)N4)CC2)c2ccc(C)o2)c(C)c1 (centres unmarked) (as salt: HCl) [Cpd. 159, 1-(3,3-difluoro-2-oxo-2,3-dihydro-1H-indol-5-yl)-N-[(2,4-dimethylphenyl)(5-methylfuran-2-yl)methyl]cyclopropane-1-carboxamide] | 177
Cc1ccc(C(NC(=O)C2(c3ccc4c(ccn4CCC(=O)O)c3)CC2)c2ccc(C)o2)c(N2CCCCC2)c1 (centres unmarked) (as salt: sodium) [Cpd. 154, 3-{5-[1-({[4-methyl-2-(piperidin-1-yl)phenyl](5-methylfuran-2-yl)methyl}carbamoyl)cyclopropyl]-1H-indol-1-yl}propanoic acid] | 90
Cc1ccc(C(NC(=O)C2(c3ccc4c(c3)OCC(=O)N4)CC2)c2cccc(Cl)c2)c(C)c1 (centres unmarked) (as salt: HCl) [Cpd. 143, N-[(3-chlorophenyl)(2,4-dimethylphenyl)methyl]-1-(3-oxo-3,4-dihydro-2H-1,4-benzoxazin-7-yl)cyclopropane-1-carboxamide] | 181
Cc1ccc(C(NC(=O)Cc2ccc3[nH]c(C)nc3c2)c2ccc(C)o2)c(Br)c1 (centres unmarked) (as salt: HCl) [Cpd. 77, N-[(2-bromo-4-methylphenyl)(5-methylfuran-2-yl)methyl]-2-(2-methyl-1H-1,3-benzodiazol-5-yl)acetamide] | 209
Cc1ccc(C(NC(=O)Cc2ccc3c(c2)CCC3O)c2ccc(C)o2)c(N2CCCCC2)c1 (centres unmarked) (as salt: sodium) [Cpd. 52, 2-(1-hydroxy-2,3-dihydro-1H-inden-5-yl)-N-{[4-methyl-2-(piperidin-1-yl)phenyl](5-methylfuran-2-yl)methyl}acetamide] | 97
Cc1ccc(C(NC(=O)Cc2cc(C)c3c(c2)CC(=O)N3)c2ccc(C)o2)c(N2CCCCC2)c1 (centres unmarked) (as salt: HCl) [Cpd. 54, N-{[4-methyl-2-(piperidin-1-yl)phenyl](5-methylfuran-2-yl)methyl}-2-(7-methyl-2-oxo-2,3-dihydro-1H-indol-5-yl)acetamide] | 237
Cc1ccc(C(NC(=O)Cc2ccc3c(c2)C(=O)CC3)c2ccc(C)o2)c(N2CCCCC2)c1 (centres unmarked) (as salt: HCl) [Cpd. 67, N-{[4-methyl-2-(piperidin-1-yl)phenyl](5-methylfuran-2-yl)methyl}-2-(3-oxo-2,3-dihydro-1H-inden-5-yl)acetamide] | 71
Cc1ccc(C(NC(=O)C2(c3ccc4c(c3)OCO4)CC2)c2ccc(C)o2)c(Br)c1 (centres unmarked) (as salt: HCl) [Cpd. 161, 1-(2H-1,3-benzodioxol-5-yl)-N-[(2-bromo-4-methylphenyl)(5-methylfuran-2-yl)methyl]cyclopropane-1-carboxamide] | 55
Cc1ccc(C(NC(=O)C2(c3ccc4c(c3)C(=O)C(=O)N4)CC2)c2ccc(C)o2)c(C)c1 (centres unmarked) (as salt: HCl) [Cpd. 125, N-[(2,4-dimethylphenyl)(5-methylfuran-2-yl)methyl]-1-(2,3-dioxo-2,3-dihydro-1H-indol-5-yl)cyclopropane-1-carboxamide] | 192
Cc1ccc(C(NC(=O)Cc2ccc3[nH]cc(CCO)c3c2)c2ccc(C)o2)c(N2CCCCC2)c1 (centres unmarked) (as salt: HCl) [Cpd. 57, 2-[3-(2-hydroxyethyl)-1H-indol-5-yl]-N-{[4-methyl-2-(piperidin-1-yl)phenyl](5-methylfuran-2-yl)methyl}acetamide] | 80
Cc1ccc(C(NC(=O)Cc2ccc3ccn(C(=O)N4CCOCC4)c3c2)c2ccc(C)o2)c(N2CCCCC2)c1 (centres unmarked) (as salt: HCl) [Cpd. 114, N-{[4-methyl-2-(piperidin-1-yl)phenyl](5-methylfuran-2-yl)methyl}-2-[1-(morpholine-4-carbonyl)-1H-indol-6-yl]acetamide] | 85
CCOc1nc2cc(CC(=O)NC(c3ccccc3)c3ccc(C)cc3Br)ccc2[nH]1 (centres unmarked) (as salt: HCl) [Cpd. 90, N-[(2-bromo-4-methylphenyl)(phenyl)methyl]-2-(2-ethoxy-1H-1,3-benzodiazol-5-yl)acetamide] | 189
Cc1ccc(C(NC(=O)C2(c3ccc4c(c3)OCO4)CC2)c2ccc(C)o2)c(N2CCCCC2)c1 (centres unmarked) (as salt: HCl) [Cpd. 164, 1-(2H-1,3-benzodioxol-5-yl)-N-{[4-methyl-2-(piperidin-1-yl)phenyl](5-methylfuran-2-yl)methyl}cyclopropane-1-carboxamide] | 51
Cc1ccc(C(NC(=O)C2(c3ccc4c(c3)CS(=O)(=O)N4)CC2)c2ccc(C)o2)c(C)c1 (centres unmarked) (as salt: HCl) [Cpd. 63, N-[(2,4-dimethylphenyl)(5-methylfuran-2-yl)methyl]-1-(2,2-dioxo-1,3-dihydro-2,1-benzothiazol-5-yl)cyclopropane-1-carboxamide] | 97
Cc1ccc(C(NC(=O)Cc2ccc3[nH]cc(C(=O)CS(C)(=O)=O)c3c2)c2ccc(C)o2)c(N2CCCCC2)c1 (centres unmarked) (as salt: HCl) [Cpd. 103, 2-[3-(2-methanesulfonylacetyl)-1H-indol-5-yl]-N-{[4-methyl-2-(piperidin-1-yl)phenyl](5-methylfuran-2-yl)methyl}acetamide] | 139
Cc1ccc(C(NC(=O)C2(c3ccc4c(c3)OCS(=O)(=O)N4)CC2)c2ccc(C)o2)c(C)c1 (centres unmarked) (as salt: HCl) [Cpd. 124, N-[(2,4-dimethylphenyl)(5-methylfuran-2-yl)methyl]-1-(2,2-dioxo-1,3-dihydro-4,2,1-benzoxathiazin-6-yl)cyclopropane-1-carboxamide] | 96
Cc1ccc(C(NC(=O)C2(c3ccc4c(n3)OCC(=O)N4)CC2)c2ccc(C)o2)c(C)c1 (centres unmarked) (as salt: HCl) [Cpd. 144, N-[(2,4-dimethylphenyl)(5-methylfuran-2-yl)methyl]-1-{2-oxo-1H,2H,3H-pyrido[2,3-b][1,4]oxazin-6-yl}cyclopropane-1-carboxamide] | 84
Cc1cnc(C(NC(=O)C2(c3ccc4c(c3)OCS(=O)(=O)N4)CC2)c2ccc(C)o2)c(C)c1 (centres unmarked) (as salt: HCl) [Cpd. 153, N-[(3,5-dimethylpyridin-2-yl)(5-methylfuran-2-yl)methyl]-1-(2,2-dioxo-1,3-dihydro-4,2,1-benzoxathiazin-6-yl)cyclopropane-1-carboxamide] | 189
CSc1ccc2cc(CC(=O)NC(c3ccc(C)o3)c3ccc(C)cc3N3CCCCC3)ccc2c1 (centres unmarked) (as salt: HCl) [Cpd. 91, N-{[4-methyl-2-(piperidin-1-yl)phenyl](5-methylfuran-2-yl)methyl}-2-[6-(methylsulfanyl)naphthalen-2-yl]acetamide] | 134
Cc1ccc(C(NC(=O)C2(c3ccc4c(c3)OCC(=O)N4)CC2)c2ccco2)c(C)c1 (centres unmarked) (as salt: HCl) [Cpd. 139, N-[(2,4-dimethylphenyl)(furan-2-yl)methyl]-1-(3-oxo-3,4-dihydro-2H-1,4-benzoxazin-7-yl)cyclopropane-1-carboxamide] | 180
Cc1ccc(C(NC(=O)C2(c3ccc4c(c3)CS(=O)(=O)N4C)CC2)c2ccc(C)o2)c(N(C)C)c1 (centres unmarked) (as salt: HCl) [Cpd. 133, N-{[2-(dimethylamino)-4-methylphenyl](5-methylfuran-2-yl)methyl}-1-(1-methyl-2,2-dioxo-1,3-dihydro-2,1-benzothiazol-5-yl)cyclopropane-1-carboxamide] | 73

From patent publication US11052092B2, “N-{[2-(piperidin-1-yl)phenyl](phenyl)methyl}-2-(3-oxo-3,4-dihydro-2H-1,4-benzoxazin-7-yl)acetamide derivatives and related compounds as ROR-gamma modulators for treating autoimmune diseases” (Genfit, priority 2017, dated 2021)
